According to patent publication US11382328B2, “Rapid drug discovery methods for pathogen inactivation” (priority 2019, dated 2022):

System: E. coli strain W3110
Assay: Synergy assays: Biolog chemical sensitivity panels with Group IB metal, coefficient of drug interaction (CDI) from relative growth
Type: cell-based
Conditions: for CDI (coefficient of drug interaction), copper mixed with biocide: Copper (mM) section
[1] = 1st of 3 copper concentrations (value not shown), 1st of four biocide concentrations
[2] = 1st of 3 copper concentrations (value not shown), 2nd of four biocide concentrations
[3] = 1st of 3 copper concentrations (value not shown), 3rd of four biocide concentrations
[4] = 2nd of 3 copper concentrations (value not shown), 1st of four biocide concentrations
[5] = 2nd of 3 copper concentrations (value not shown), 2nd of four biocide concentrations
[6] = 2nd of 3 copper concentrations (value not shown), 3rd of four biocide concentrations
[7] = 3rd of 3 copper concentrations (value not shown), 1st of four biocide concentrations
[8] = 3rd of 3 copper concentrations (value not shown), 2nd of four biocide concentrations
[9] = 3rd of 3 copper concentrations (value not shown), 3rd of four biocide concentrations
[10] = 3rd of 3 copper concentrations (value not shown), 4th of four biocide concentrations
[11] = Gold section of Table 5, first of three gold concentrations (μM, value not given), biocide concentration 4 of 4
[12] = Gold section of Table 5, second of three gold concentrations (μM, value not given), biocide concentration 1 of 4
[13] = Gold section of Table 5, second of three gold concentrations (μM, value not given), biocide concentration 3 of 4
[14] = Gold section of Table 5, second of three gold concentrations (μM, value not given), biocide concentration 4 of 4
[15] = Gold section of Table 5, third of three gold concentrations (μM, value not given), biocide concentration 1 of 4
[16] = Gold section of Table 5, third of three gold concentrations (μM, value not given), biocide concentration 2 of 4
[17] = Gold section of Table 5, third of three gold concentrations (μM, value not given), biocide concentration 4 of 4
[18] = Silver 0.5 μM, 1st of four biocide concentrations, E. coli
[19] = Silver 0.5 μM, 2nd of four biocide concentrations, E. coli
[20] = Silver 0.5 μM, 4th of four biocide concentrations, E. coli
[21] = Silver 1.0 μM, 2nd of four biocide concentrations, E. coli
[22] = Silver 1.0 μM, 3rd of four biocide concentrations, E. coli
[23] = Silver 1.0 μM, 4th of four biocide concentrations, E. coli
[24] = Silver 5.0 μM, 1st of four biocide concentrations, E. coli
[25] = Silver 5.0 μM, 3rd of four biocide concentrations, E. coli
[26] = Silver 5.0 μM, 4th of four biocide concentrations, E. coli

Substance: Niaproof
- CDI (coefficient of drug interaction), copper mixed with biocide [1]: 1.26
- CDI (coefficient of drug interaction), copper mixed with biocide [2]: 1.45
- CDI (coefficient of drug interaction), copper mixed with biocide [3]: 0.74
- CDI (coefficient of drug interaction), copper mixed with biocide (1st of 3 copper concentrations (value not shown), 4th of four biocide concentrations): 0.91
- CDI (coefficient of drug interaction), copper mixed with biocide [4]: 1.09
- CDI (coefficient of drug interaction), copper mixed with biocide [5]: 1.20
- CDI (coefficient of drug interaction), copper mixed with biocide [6]: 0.43
- CDI (coefficient of drug interaction), copper mixed with biocide (2nd of 3 copper concentrations (value not shown), 4th of four biocide concentrations): 0.46
- CDI (coefficient of drug interaction), copper mixed with biocide [7]: 1.19
- CDI (coefficient of drug interaction), copper mixed with biocide [8]: 1.00
- CDI (coefficient of drug interaction), copper mixed with biocide [9]: 0.73
- CDI (coefficient of drug interaction), copper mixed with biocide [10]: 1.32
- CDI (coefficient of drug interaction) (Gold section of Table 5, first of three gold concentrations (μM, value not given), biocide concentration 1 of 4): 1.32
- CDI (coefficient of drug interaction) [11]: 1.27
- CDI (coefficient of drug interaction) [12]: 1.21
- CDI (coefficient of drug interaction) (Gold section of Table 5, second of three gold concentrations (μM, value not given), biocide concentration 2 of 4): 1.03
- CDI (coefficient of drug interaction) [13]: 1.09
- CDI (coefficient of drug interaction) [14]: 1.15
- CDI (coefficient of drug interaction) [15]: 1.35
- CDI (coefficient of drug interaction) [16]: 1.20
- CDI (coefficient of drug interaction) (Gold section of Table 5, third of three gold concentrations (μM, value not given), biocide concentration 3 of 4): 0.95
- CDI (coefficient of drug interaction) [17]: 1.51
- CDI (coefficient of drug interaction), silver + biocide [18]: 1.07
- CDI (coefficient of drug interaction), silver + biocide [19]: 1.17
- CDI (coefficient of drug interaction), silver + biocide [20]: 1.74
- CDI (coefficient of drug interaction), silver + biocide [21]: 1.17
- CDI (coefficient of drug interaction), silver + biocide [22]: 0.99
- CDI (coefficient of drug interaction), silver + biocide [23]: 1.45
- CDI (coefficient of drug interaction), silver + biocide [24]: 0.89
- CDI (coefficient of drug interaction), silver + biocide (Silver 5.0 μM, 2nd of four biocide concentrations, E. coli): 0.99
- CDI (coefficient of drug interaction), silver + biocide [25]: 0.78
- CDI (coefficient of drug interaction), silver + biocide [26]: 0.55

Substance: acriflavine
- CDI (coefficient of drug interaction), copper mixed with biocide [1]: 1.00
- CDI (coefficient of drug interaction), copper mixed with biocide [2]: 1.03
- CDI (coefficient of drug interaction), copper mixed with biocide [3]: 0.95
- CDI (coefficient of drug interaction), copper mixed with biocide [4]: 0.88
- CDI (coefficient of drug interaction), copper mixed with biocide [5]: 0.91
- CDI (coefficient of drug interaction), copper mixed with biocide [6]: 0.95
- CDI (coefficient of drug interaction), copper mixed with biocide [7]: 0.89
- CDI (coefficient of drug interaction), copper mixed with biocide [8]: 0.82
- CDI (coefficient of drug interaction), copper mixed with biocide [9]: 0.81
- CDI (coefficient of drug interaction), copper mixed with biocide [10]: 0.78
- CDI (coefficient of drug interaction) (Gold 5 μM, biocide concentration 1 of 4, E. coli): 0.92
- CDI (coefficient of drug interaction) (Gold 5 μM, biocide concentration 2 of 4, E. coli): 0.94
- CDI (coefficient of drug interaction) (Gold 5 μM, biocide concentration 3 of 4, E. coli): 0.94
- CDI (coefficient of drug interaction) (Gold 25 μM, biocide concentration 1 of 4, E. coli): 0.96
- CDI (coefficient of drug interaction) (Gold 25 μM, biocide concentration 3 of 4, E. coli): 0.96
- CDI (coefficient of drug interaction) (Gold 25 μM, biocide concentration 4 of 4, E. coli): 0.87
- CDI (coefficient of drug interaction) (Gold 50 μM, biocide concentration 1 of 4, E. coli): 0.86
- CDI (coefficient of drug interaction) (Gold 50 μM, biocide concentration 2 of 4, E. coli): 1.00
- CDI (coefficient of drug interaction) (Gold 50 μM, biocide concentration 3 of 4, E. coli): 0.96
- CDI (coefficient of drug interaction) (Gold 50 μM, biocide concentration 4 of 4, E. coli): 0.84
- CDI (coefficient of drug interaction), silver + biocide [18]: 0.99
- CDI (coefficient of drug interaction), silver + biocide [19]: 1.03
- CDI (coefficient of drug interaction), silver + biocide (Silver 0.5 μM, 3rd of four biocide concentrations, E. coli): 0.86
- CDI (coefficient of drug interaction), silver + biocide [20]: 0.73
- CDI (coefficient of drug interaction), silver + biocide (Silver 1.0 μM, 1st of four biocide concentrations, E. coli): 0.97
- CDI (coefficient of drug interaction), silver + biocide [21]: 0.95
- CDI (coefficient of drug interaction), silver + biocide [22]: 0.87
- CDI (coefficient of drug interaction), silver + biocide [23]: 0.59
- CDI (coefficient of drug interaction), silver + biocide [24]: 0.96
- CDI (coefficient of drug interaction), silver + biocide [25]: 0.54
- CDI (coefficient of drug interaction), silver + biocide [26]: 0.24

Substance: capreomycin
- CDI (coefficient of drug interaction) (Copper (mM), 1st of 3 copper concentrations (head line not shown), biocide concentration 1 of 4, E. coli): 1.10
- CDI (coefficient of drug interaction) (Copper (mM), 1st of 3 copper concentrations (head line not shown), biocide concentration 2 of 4, E. coli): 0.91
- CDI (coefficient of drug interaction) (Copper (mM), 1st of 3 copper concentrations (head line not shown), biocide concentration 3 of 4, E. coli): 0.83
- CDI (coefficient of drug interaction) (Copper (mM), 1st of 3 copper concentrations (head line not shown), biocide concentration 4 of 4, E. coli): 0.87
- CDI (coefficient of drug interaction) (Copper (mM), 2nd of 3 copper concentrations (head line not shown), biocide concentration 1 of 4, E. coli): 0.87
- CDI (coefficient of drug interaction) (Copper (mM), 2nd of 3 copper concentrations (head line not shown), biocide concentration 2 of 4, E. coli): 0.86
- CDI (coefficient of drug interaction) (Copper (mM), 2nd of 3 copper concentrations (head line not shown), biocide concentration 3 of 4, E. coli): 0.90
- CDI (coefficient of drug interaction) (Copper (mM), 2nd of 3 copper concentrations (head line not shown), biocide concentration 4 of 4, E. coli): Tox
- CDI (coefficient of drug interaction) (Copper (mM), 3rd of 3 copper concentrations (head line not shown), biocide concentration 1 of 4, E. coli): 0.86
- CDI (coefficient of drug interaction) (Copper (mM), 3rd of 3 copper concentrations (head line not shown), biocide concentration 2 of 4, E. coli): 0.57
- CDI (coefficient of drug interaction) (Copper (mM), 3rd of 3 copper concentrations (head line not shown), biocide concentration 3 of 4, E. coli): 0.49
- CDI (coefficient of drug interaction) (Copper (mM), 3rd of 3 copper concentrations (head line not shown), biocide concentration 4 of 4, E. coli): 0.60
- CDI (coefficient of drug interaction) [11]: 1.03
- CDI (coefficient of drug interaction) [12]: 1.03
- CDI (coefficient of drug interaction) [13]: 0.97
- CDI (coefficient of drug interaction) [14]: 1.06
- CDI (coefficient of drug interaction) [15]: 1.00
- CDI (coefficient of drug interaction) [16]: 0.98
- CDI (coefficient of drug interaction) [17]: 1.14
- CDI (Silver 0.5 μM, biocide concentration 1 of 4): 0.95
- CDI (Silver 0.5 μM, biocide concentration 2 of 4): 0.92
- CDI (Silver 0.5 μM, biocide concentration 3 of 4): 0.96
- CDI (Silver 0.5 μM, biocide concentration 4 of 4): Tox
- CDI (Silver 1.0 μM, biocide concentration 1 of 4): 0.69
- CDI (Silver 1.0 μM, biocide concentration 2 of 4): 0.37
- CDI (Silver 1.0 μM, biocide concentration 3 of 4): 0.35
- CDI (Silver 1.0 μM, biocide concentration 4 of 4): Tox
- CDI (Silver 5.0 μM, biocide concentration 1 of 4): 0.41
- CDI (Silver 5.0 μM, biocide concentration 2 of 4): 0.11
- CDI (Silver 5.0 μM, biocide concentration 3 of 4): 0.02
- CDI (Silver 5.0 μM, biocide concentration 4 of 4): Tox
